The source of these data is PubChem BioAssay AID2060502 (Molecular Pharmacology Branch, DTP, NCI, 2025).

The subject of this assay is 885724-159-R-J1-PDC complex spheroid viability. Kind of assay: Anticancer human tumor 885724-159-R-J1-PDC patient-derived pancreatic adenocarcinoma cell line growth inhibition [GQUAD]. Particulars: for viability, T/C: stronger effect = lower value. The source says: DNA G-quadruplex Stabilizer Agents in Combinations in Complex Spheroids
A high-throughput screen of multi-cell type tumor spheroids was designed to identify active combinations of DNA G-quadruplex stabilizer agents and targeted small molecules. Complex spheroids include a stromal component modeled by human endothelial cells (HUVEC) and fibroblasts modeled by human mesenchymal stem cells (MSCs). The concentration ranges selected for each drug and investigational agent were based upon clinically achievable concentrations if the clinical Cmax of the agent was known.
Compounds. The drugs and investigational agents: pidnarulex (CX-5461; NSC782164), APTO-253 (NSC789042), BRACO-19 (NSC847499), peposertib (NSC802822), ceralasertib (NSC780249), elimusertib (NSC800525), camonsertib (NSC841442), AZD-1390 (NSC803789), olaparib (NSC753686), talazoparib (NSC767125), ART-558 (NSC835418), sotorasib (NSC818433), MRTX-1133 (NSC836407), SN-38 (NSC673596), topotecan (NSC609699), etoposide (NSC141540), doxorubicin (NSC123127), gemcitabine (NSC613327), 5-fluorouracil (NSC19893), paclitaxel (NSC125973), vemurafenib (NSC761431), panobinostat (NSC761190), R-306465 (JNJ-16241199; NSC773264), adavosertib (NSC754352), TP-3654 (NSC805149), carboplatin (NSC241240), KSQ-4279 (NSC840948), and staurosporine (NSC755774) were obtained from the National Cancer Institute (NCI) Developmental Therapeutics Program Chemical Repository (34). The FDA-approved anticancer drug set is available from the NCI Developmental Therapeutics Program. […] The stock solutions were prepared in dimethyl sulfoxide (DMSO, Sigma-Aldrich, St. Louis, MO, cat. D2650) at 800-fold the tested concentration and stored at -70 degrees C prior to their use. All drugs and investigational agents were tested over a range starting from a high concentration at or near the clinical Cmax and decreasing in half-log increments. If the clinical Cmax for an agent had not been determined, the highest concentration tested was 10 microM.
2.3 Cell Culture. All cells were maintained in an incubator at 37 degrees C and 5% CO2 with 95% humidity. The PDC lines were cultured according to standard operating procedures established by the NCI PDMR. All PDCs were thawed and cultured in Matrigel-coated flasks prepared with a working solution of 1X Ham's F-12 nutrient mix, without supplementation (Invitrogen, cat. 11765054), 100 U/mL penicillin-streptomycin (Invitrogen, cat. 15140122), and 2.5% Matrigel (Corning Inc., cat. 354248) for the first three passages. The 857933-349-R-J2-PDC line was cultured in 6C/Colon 1B media, which includes advanced DMEM/F-12 (Thermo Fisher Scientific, cat. 12634028), 10 mM HEPES (Thermo Fisher Scientific, cat. 15630080), 1X GlutaMAX supplement (Thermo Fisher Scientific, cat. 35050061), 0.1 mg/mL primocin (InvivoGen, cat. ant-pm-2), 10% defined fetal bovine serum, heat inactivated (HyClone Laboratories Inc., cat. SH30070.03HI), 50% L-WRN conditioned media (ATCC, cat. CRL-3276), 1.25 mM N-Acetyl-L-cysteine (Sigma-Aldrich, cat. A9165), 10 mM nicotinamide (Sigma-Aldrich, cat. N0636), 1X B-27 supplement (Thermo Fisher Scientific, cat. 17504044), 1X N-2 supplement (Thermo Fisher Scientific, cat. 17502048), 10 microM Y-27632 dihydrochloride (Tocris Bioscience, cat. 1254), and 50 ng/mL human EGF recombinant protein (Thermo Fisher Scientific, cat. PHG0311). The 485176-168-R4-J1-PDC line was cultured in Panc media, which includes all 6C/Colon 1B media components plus 100 ng/mL human FGF-10 (Thermo Fisher Scientific, cat. 100-26), 500 nM SB-431542 (Selleckchem, cat. S1067), and gastrin (Tocris, cat. 3006).
[…]

Where [1] appears, read: curve of first compound, second compound 0.0316 µM.
The mark [2] stands for this setting: curve of first compound, second compound 0.1 µM.
Setting [3] is: curve of first compound, second compound 0.316 µM.
Where [4] appears, read: curve of first compound, second compound 1 µM.
Setting [5] is: curve of first compound, second compound 3.16 µM.
Where [6] appears, read: curve of first compound, second compound 10 µM.
Setting [7] is: second compound 0.0316 µM, first compound 0.0316 µM.
[8] abbreviates: second compound 0.0316 µM, first compound 0.1 µM.
The mark [9] stands for this setting: second compound 0.0316 µM, first compound 0.316 µM.
[10] abbreviates: second compound 0.0316 µM, first compound 1 µM.
Where [11] appears, read: second compound 0.0316 µM, first compound 3.16 µM.
The mark [12] stands for this setting: second compound 0.0316 µM, first compound 10 µM.
The mark [13] stands for this setting: second compound 0.1 µM, first compound 0.0316 µM.
Where [14] appears, read: second compound 0.1 µM, first compound 0.1 µM.
Setting [15] is: second compound 0.1 µM, first compound 0.316 µM.
The mark [16] stands for this setting: second compound 0.1 µM, first compound 1 µM.
[17] abbreviates: second compound 0.1 µM, first compound 3.16 µM.
[18] abbreviates: second compound 0.1 µM, first compound 10 µM.
Where [19] appears, read: second compound 0.316 µM, first compound 0.0316 µM.
The mark [20] stands for this setting: second compound 0.316 µM, first compound 0.1 µM.
[21] abbreviates: second compound 0.316 µM, first compound 0.316 µM.
[22] abbreviates: second compound 0.316 µM, first compound 1 µM.
Setting [23] is: second compound 0.316 µM, first compound 3.16 µM.
Where [24] appears, read: second compound 0.316 µM, first compound 10 µM.
Where [25] appears, read: second compound 1 µM, first compound 0.0316 µM.
Setting [26] is: second compound 1 µM, first compound 0.1 µM.
[27] abbreviates: second compound 1 µM, first compound 0.316 µM.
Setting [28] is: second compound 1 µM, first compound 1 µM.
The mark [29] stands for this setting: second compound 1 µM, first compound 3.16 µM.
Where [30] appears, read: second compound 1 µM, first compound 10 µM.
Setting [31] is: second compound 3.16 µM, first compound 0.0316 µM.
Where [32] appears, read: second compound 3.16 µM, first compound 0.1 µM.
[33] abbreviates: second compound 3.16 µM, first compound 0.316 µM.
Setting [34] is: second compound 3.16 µM, first compound 1 µM.
Setting [35] is: second compound 3.16 µM, first compound 3.16 µM.
Where [36] appears, read: second compound 3.16 µM, first compound 10 µM.
[37] abbreviates: second compound 10 µM, first compound 0.0316 µM.
[38] abbreviates: second compound 10 µM, first compound 0.1 µM.
The mark [39] stands for this setting: second compound 10 µM, first compound 0.316 µM.
Where [40] appears, read: second compound 10 µM, first compound 1 µM.
The mark [41] stands for this setting: second compound 10 µM, first compound 3.16 µM.
Setting [42] is: second compound 10 µM, first compound 10 µM.

Where “and” joins values, the source holds several entries; their conditions need not be identical. Equal entries are not always repeated. Where only a bound is given, the exact number is not on record here.
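Note: spheroids exposed to agents for seven days before readout.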
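Throughout, for viability, T/C: percent of vehicle control viability where 100% = DMSO wells.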

For `CC[C@@]1(O)C(=O)OCc2c1cc1n(c2=O)Cc2cc3c(CN(C)C)c(O)ccc3nc2-1`, the viability, T/C was 86.3% and 93.6% and 89.6% (compound 0.000999 µM); 104% and 87.4% and 88.3% (compound 0.00316 µM); 99.2% and 92.9% and 93% (compound 0.00999 µM); 80.8% and 92.5% and 101% (compound 0.0316 µM); 85.6% and 74.7% and 90.8% (compound 0.0999 µM); 74.5% and 64.7% and 71.3% (compound 0.316 µM). In addition, the IC50 (curve of compound) is greater than 0.316 µM.
In the case of `COc1ccc([C@@H](O)c2cc(-c3ncnc4cc(N5CCOCC5)ccc34)c(F)cc2Cl)nn1` + CN(C)c1ccc(Nc2c3ccc(NC(=O)CCN4CCCC4)cc3nc3cc(NC(=O)CCN4CCCC4)ccc23)cc1, the IC50 runs as follows: under setting [1], 6.35 µM; under setting [2], 4.79 µM; under setting [3], 5.21 µM; under setting [4], 3.02 µM; under setting [5], 3.14 µM; under setting [6], 2.73 µM. The viability, T/C is, setting by setting: under setting [7], 88.5%; under setting [8], 89%; under setting [9], 79.8%; under setting [10], 85.3%; under setting [11], 58.4%; under setting [12], 44.6%. The viability, T/C was 95.7% under setting [13]; 90.5% under setting [14]; 95.7% under setting [15]; 73.5% under setting [16]; 59% under setting [17]; 36.9% under setting [18]. Besides, the viability, T/C was 89.3% under setting [19]; 82.3% under setting [20]; 79.2% under setting [21]; 70.7% under setting [22]; 62.8% under setting [23]; 36.3% under setting [24]. Further, the viability, T/C was 78.9% under setting [25]; 84.1% under setting [26]; 82.7% under setting [27]; 70.2% under setting [28]; 49.6% under setting [29]; 30.2% under setting [30]. In addition, the viability, T/C is 71.6% under setting [31]; 70.9% under setting [32]; 73.7% under setting [33]; 60.4% under setting [34]; 50.9% under setting [35]; 29.6% under setting [36]. The viability, T/C reads like this: under setting [37], 72.9%; under setting [38], 81.5%; under setting [39], 69.5%; under setting [40], 62.2%; under setting [41], 49%; under setting [42], 25.2%.
For `COc1cccc2c1C(=O)c1c(O)c3c(c(O)c1C2=O)CC(O)(C(=O)CO)CC3OC1CC(N)C(O)C(C)O1` (configuration not stated), the viability, T/C is, setting by setting: (compound 0.0316 µM) 92.3% and 103% and 104%; (compound 0.1 µM) 92.3% and 81.3% and 102%; (compound 0.316 µM) 80.3% and 79.5% and 78.9%; (compound 1 µM) 84.3% and 81.4% and 81.6%; (compound 3.16 µM) 38.4% and 40.1% and 34.5%; (compound 10 µM) 4.02% and 1.94% and 3.83%. Also, for the setting “curve of compound”, the IC50 is 2.35 µM and 2.39 µM and 2.14 µM.
As for `Cc1cnc(CNC(=O)c2c(=O)c3ccc(N4CCCN(C)CC4)nc3n3c2sc2ccccc23)cn1`, the viability, T/C (compound 0.316 µM) was 98.5% [middle of 12 runs]; the viability, T/C (compound 1 µM) is 87.6% [middle of 11 runs]; the viability, T/C (compound 3.16 µM) is 80.1% [middle of 12 runs]; the viability, T/C (compound 10 µM) is 77.7% [middle of 12 runs]. Moreover, the IC50 (compound alone, run of 02/20/2024) is greater than 10 µM.
`O=C(c1cc(Cc2n[nH]c(=O)c3ccccc23)ccc1F)N1CCN(C(=O)C2CC2)CC1`: the viability, T/C (compound 0.0316 µM) was 99.2% and 89.1% and 108%; the viability, T/C (compound 0.1 µM) is 101% and 98.7% and 92.9%; the viability, T/C (compound 0.316 µM) was 95.6% and 92.5% and 106%; the viability, T/C (compound 1 µM) is 87% and 108% and 83.3%; the viability, T/C (compound 3.16 µM) is 90.5% and 89.9% and 99.1%; the viability, T/C (compound 10 µM) is 97.6% and 90.9% and 82.7%. The 50% inhibitory concentration (IC50) (curve of compound) is greater than 10 µM.
As to `CC1COCCN1c1cc(-c2ccnn2C)c2ccnc(-c3ccn[nH]3)c2n1` (configuration not stated) + Cc1[nH]c2ccc(F)cc2c1-c1nc2c3cccnc3c3ncccc3c2[nH]1, the IC50 under setting [1] was greater than 10 µM; the IC50 under setting [2] was greater than 10 µM; the IC50 under setting [3] was determined as 8.46 µM; the IC50 under setting [4] amounted to 2.85 µM; the IC50 under setting [5] amounted to 0.0524 µM; the IC50 under setting [6] is 4.98 µM. Also, the viability, T/C was 104% under setting [7]; 87.3% under setting [8]; 87.2% under setting [9]; 76.9% under setting [10]; 53.3% under setting [11]; 53.8% under setting [12]. Besides, the viability, T/C is, setting by setting: under setting [13], 99.7%; under setting [14], 104%; under setting [15], 89.8%; under setting [16], 73.5%; under setting [17], 62.5%; under setting [18], 51.8%. The viability, T/C is, setting by setting: under setting [19], 98.7%; under setting [20], 84.7%; under setting [21], 68.7%; under setting [22], 61.1%; under setting [23], 56.6%; under setting [24], 48%. In addition, the viability, T/C runs as follows: under setting [25], 80.4%; under setting [26], 68.9%; under setting [27], 63.8%; under setting [28], 54.5%; under setting [29], 51%; under setting [30], 43.5%. In addition, the viability, T/C was 54.8% under setting [31]; 39.6% under setting [32]; 47.9% under setting [33]; 28.2% under setting [34]; 24.8% under setting [35]; 30.6% under setting [36]. In addition, the viability, T/C runs as follows: under setting [37], 66.3%; under setting [38], 66%; under setting [39], 62.9%; under setting [40], 52.9%; under setting [41], 51.8%; under setting [42], 47.9%.
Take `O=c1[nH]cc(F)c(=O)[nH]1`: the viability, T/C (compound 0.0316 µM) is 96.3% and 85.1% and 106%; the viability, T/C (compound 0.1 µM) is 100% and 95.1% and 93.2%; the viability, T/C (compound 0.316 µM) was 96.9% and 89% and 95.5%; the viability, T/C (compound 1 µM) was 91.2% and 94% and 92.8%; the viability, T/C (compound 3.16 µM) was 94.3% and 94.6% and 93.9%; the viability, T/C (compound 10 µM) was 88.3% and 87.7% and 92%. The IC50 (curve of compound) is greater than 10 µM.

Usually viability, T/C stands for the ratio of treated to control. What is called IC50 is the concentration that gives 50% inhibition.
